# Test results taken from ChEMBL document CHEMBL4385670, “Potent HIV-1 protease inhibitors incorporating squaramide-derived P2 ligands: Design, synthesis, and biological evaluation” (Bioorg Med Chem Lett, 2019).
# How the values were obtained:
# Protease = Protease (Human immunodeficiency virus 1, UniProt Q9YQ12); experiment: Inhibition of HIV1 protease using Ac-Thr-Ile-Nle-Nle-Gln-Arg-NH2 substrate by continuous fluorometric assay
# [1] = system: Human immunodeficiency virus 1; experiment: Antiviral activity against HIV1 NL4-3 infected in human MT4 cells assessed as reduction in p24 Gag protein production incubated for 6 days and measured on day 7 by chemiluminescent enzyme immunoassay; format: functional, organism-based; conditions: Human immunodeficiency virus 1, NL4-3, MT4
# Sequence of Protease (Q9YQ12 whole entry): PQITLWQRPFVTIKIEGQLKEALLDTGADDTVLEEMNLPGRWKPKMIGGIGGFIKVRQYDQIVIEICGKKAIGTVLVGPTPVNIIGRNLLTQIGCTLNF
SMILES,Ki (Protease) [nM],IC50 [1] [nM]
CCOc1c(N[C@@H](Cc2ccccc2)[C@H](O)CN(CC(C)C)S(=O)(=O)c2ccc(OC)cc2)c(=O)c1=O,463,> 1000
COc1ccc(S(=O)(=O)N(CC(C)C)C[C@@H](O)[C@H](Cc2ccccc2)Nc2c(O[C@@H]3CCOC3)c(=O)c2=O)cc1,226,> 1000
COc1ccc(S(=O)(=O)N(CC(C)C)C[C@@H](O)[C@H](Cc2ccccc2)Nc2c(N(C)[C@@H]3CCOC3)c(=O)c2=O)cc1,0.51,> 1000
COc1ccc(S(=O)(=O)N(CC(C)C)C[C@@H](O)[C@H](Cc2ccccc2)Nc2c(O[C@H]3CCOC3)c(=O)c2=O)cc1,31.1,> 1000
COc1ccc(S(=O)(=O)N(CC(C)C)C[C@@H](O)[C@H](Cc2ccccc2)Nc2c(N(C)[C@H]3CO[C@H]4OCC[C@H]43)c(=O)c2=O)cc1,4.5,> 1000
COc1ccc(S(=O)(=O)N(CC(C)C)C[C@@H](O)[C@H](Cc2ccccc2)Nc2c(N[C@H]3CCOC3)c(=O)c2=O)cc1,6100,> 1000
COc1ccc(S(=O)(=O)N(CC(C)C)C[C@@H](O)[C@H](Cc2ccccc2)Nc2c(N[C@@H]3CO[C@@H]4OCC[C@@H]43)c(=O)c2=O)cc1,5.6,> 1000
COc1ccc(S(=O)(=O)N(CC(C)C)C[C@@H](O)[C@H](Cc2ccccc2)Nc2c(N[C@H]3CO[C@H]4OCC[C@H]43)c(=O)c2=O)cc1,54.8,> 1000
COc1ccc(S(=O)(=O)N(CC(C)C)C[C@@H](O)[C@H](Cc2ccccc2)Nc2c(N[C@@H]3CCOC3)c(=O)c2=O)cc1,200,> 1000
COCCOc1c(N[C@@H](Cc2ccccc2)[C@H](O)CN(CC(C)C)S(=O)(=O)c2ccc(OC)cc2)c(=O)c1=O,1960,> 1000
COc1ccc(S(=O)(=O)N(CC(C)C)C[C@@H](O)[C@H](Cc2ccccc2)Nc2c(N(C)[C@H]3CCOC3)c(=O)c2=O)cc1,397,> 1000
COc1ccc(S(=O)(=O)N(CC(C)C)C[C@@H](O)[C@H](Cc2ccccc2)Nc2c(N(C)[C@@H]3CO[C@@H]4OCC[C@@H]43)c(=O)c2=O)cc1,201,> 1000
